# Measured values from patent US20080058280A1, “Treatment of Lymphoma Using 10-Propargyl-10-Deazaaminopterin and Gemcitabine” (SLOAN-KETTERING INSTITUTE FOR CANCER RESEARCH, priority 2004, published 2008).
# Key:
# [1] = test system: human HT (diffuse large B cell) non-Hodgkin's lymphoma xenografts; test: Subcutaneous lymphoma xenograft treatment; format: in vivo
# From the text: (§1) In order to study the effects of PDX on lymphoma growth in vivo, subcutaneous transplantation models in NOD/SCID mice were generated using three established human lymphoma cell line representative of aggressive transformed FL (RL) and de novo extranodal DLBCL (HT; SKI-DLCL-1) histologies. Six to eight week old non-obsese diabetic severe combined immunodeficient (NOD/SCID) mice (Jackson Laboratories, Bar Harbor, Me.) were sub-lethally irradiated with […] from a gamma source and inoculated with 10×10^6 lymphoma cells via a subcutaneous route. When tumor volumes approached 100 mm^3, mice were divided into three groups, averaging 3-8 mice per group. Mice were treated with normal saline or the maximum tolerated dose (MTD) of MTX (40 mg/kg) or PDX (60 mg/kg) via an intraperitoneal route twice weekly for two weeks (four total doses). […] (Sirotnak, et al., Cancer Chemother. Pharmacol. 12: 26-30 (1984); Sirotnak et al., Cancer Chemother. Pharmacol. 42: 313-318 (1998).
# (§2) Engraftment rates in this experiment ranged from 80 to 90%. Palpable tumors formed under the skin approximately 7-10 days after inoculation and were readily measurable with calipers. Mice with subcutaneous lymphoma growths survived an average of 40-50 days after inoculation.
# [2] = test system: human RL (transformed follicular) non-Hodgkin's lymphoma xenografts; test: Subcutaneous lymphoma xenograft treatment; format: in vivo
# From the text: as §1, §2
# [3] = test system: human SKI-DLCL-1 (de novo diffuse large B cell) non-Hodgkin's lymphoma xenografts; test: Subcutaneous lymphoma xenograft treatment; format: in vivo; conditions: SKI-DLCL-1 xenografts
# From the text: as §1, §2
# [4] = test system: subcutaneous tumors of SKI; test: Preliminary combination xenograft experiment; format: in vivo, irradiated NOD-SCID mice; conditions: for tumor response (in words): MTX 40 mg/kg (MTD), Ara-C 300 mg/kg (MTD), or combination at one-half the MTD
# Description: Given the experience that SKI-DLCL-1 is the most PDX resistant line in the panel, it was selected for these in vivo synergy experiments. […] All animals were treated with the maximum tolerated dose (MTD) of each drug, save the combination studies.
# SKI-DLBCL-1 xenografts = test: TUNEL immunohistochemical staining for apoptosis in xenografts; format: in vivo, mice; conditions: day 21; MTX 40 mg/kg or PDX 60 mg/kg on days 0, 3, 7 and 10
# Description: Immunohistochemical staining for apoptosis as measured by terminal deoxynucleotide transferase-mediated nick end-labeling (TUNEL) was performed on SKI-DLBCL-1 xenografts from mice sacrificed at day 21 following initiation of antifolate therapy. Mice received four doses of saline, MTX (40 mg/kg) or PDX (60 mg/kg) on days 0, 3, 7 and 10.
# [5] = cited from earlier work; for weight loss at the MTD: nude mice
# SKI-DLBCL-1 xenograft = test: Second combination xenograft experiment (FIG. 5); format: in vivo, SCID beige mice; conditions: PDX and Gem at one-quarter of the MTD (15 mg/kg); MTX (60 mg/kg) alone, Ara-C (300 mg/kg) alone or both
# Description: The same type of test was repeated to assess the in vivo efficacy of using combination therapies. […] Schedule dependent treatment was also determined by pretreating animals with PDX or MTX followed 24 hours later with Gem or Ara-C, respectively. One cohort of animals was treated with Gem followed by PDX. In all cases, the control animals received intraperitoneal injections of normal saline.
# Tumor bearing mice were assessed for weight loss and tumor volume at least twice weekly for the duration of the experiment. The data are expressed as the average tumor volume (mm3) per group as a function of time. Tumors were assessed by measuring the two largest perpendicular axes (l=length, w=width) with standard calipers. Tumor volume was calculated using the formula 4/3 πr^3 where r=(l+w)/4. Animals were sacrificed when one dimensional tumor diameter exceeded 2.0 cm, or after loss of more than 10% of their body weight in accordance with institutional guidelines. Animals were housed in standard shoe box cages in temperature and humidity constant rooms on a 12 hour light and dark cycle. Food and water were supplied ad libitum. Animals were maintained in core animal facilities under an institute approved animal protocol.
# SKI-DLBCL cells = test: Cell cycle analysis (propidium iodide binding); format: cell-based, human; conditions: result in words
# Description: All drugs were assayed at equimolar concentrations (i.e. 1 nM). The incubation conditions were modeled after the in vitro cytotoxicity experiments. Single agent drugs or combinations of all drugs studied without schedule considerations were incubated for 72 hours, while drugs that were studied in some schedule were introduced in a 24+48 incubation scheme (i.e. drug B added 24 hours following drug A, then incubated for an additional 48 hours for a total incubation time of 72 hours). […] In addition to monitoring apoptosis, cell cycle kinetic analyses were also performed on all treated cells based the propidium iodide binding.
# [6] = test system: HT (Diffuse large B cell); test: Growth inhibition in vitro, 5 day exposure (XTT or Alamar blue); format: cell-based; conditions: Homo sapiens, 120 h, 5 day drug exposure
# Description: (§3) A PDX preparation prepared in accordance with Example 1 and an MTX preparation were tested for cytotoxicity against a panel of five human lymphoma cell lines. Experiments were performed as described previously. (Sirotnak et al., Cancer Chemother. Pharmacol. 12: 18-25 (1984). In brief, 2.5 to 5×10^3 cells were plated per well in 96-well flat bottom plates. Drug was added in a 0.9% NaCl solution (pH 7.0) over a range of concentrations, and cells were continuously exposed to drug for 5 days. Colorimetric dye (XTT or Alamar blue) was added for an addition period of time (XTT dye, 6 hours, Alamar blue, 24 hours). Each plate was then read on an automated plate reader at 590 nm. The percentage of inhibition was calculated as growth of cells exposed to drug divided by growth of controls (cells incubated with media only). IC50 values were determined as the drug concentrations at which cell growth was inhibited 50% as compared to controls. Experiments were repeated as lest three times. Experiments were also conducted with continuous drug exposures lasting for 3 and 4 days with results similar to the 5 day results.
# [7] = test system: Hs445 (Hodgkin's disease); test: as above; format: cell-based; conditions: Homo sapiens, Hs 445, 120 h, 5 day drug exposure
# Description: as §3
# [8] = test system: RL (Transformed follicular); test: as above; format: cell-based; conditions: Homo sapiens, 120 h, 5 day drug exposure
# Description: as §3
# Raji (Burkitt's) = test: as above; format: cell-based; conditions: Homo sapiens, 120 h, 5 day drug exposure
# Description: as §3
# [9] = test system: SKI-DLCL-1 (Diffuse large B Cell); test: as above; format: cell-based; conditions: Homo sapiens, 120 h, 5 day drug exposure
# Description: A PDX preparation prepared in accordance with Example 1 and an MTX preparation were tested for cytotoxicity against a panel of five human lymphoma cell lines. Experiments were performed as described previously. (Sirotnak et al., Cancer Chemother. […] Colorimetric dye (XTT or Alamar blue) was added for an addition period of time (XTT dye, 6 hours, Alamar blue, 24 hours). Each plate was then read on an automated plate reader at 590 nm. The percentage of inhibition was calculated as growth of cells exposed to drug divided by growth of controls (cells incubated with media only). […] Experiments were repeated as lest three times.
structure (smiles),measurement,setting,value
"C#CCC(Cc1cnc2nc(N)nc(N)c2n1)c1ccc(C(=O)N[C@@H](CCC(=O)O)C(=O)O)cc1 (stereo partly shown) [PDX, 10-Propargyl-10-deazaminopterin]",Complete Regression (no/total),"[1]; MTX 40 mg/kg, PDX 60 mg/kg",8/9
same,Avg Tumor Diameter (mm ± SE),"[1]; MTX 40 mg/kg, PDX 60 mg/kg, at the nadir of tumor regression",0.5 mm
same,mice with complete tumor regression,"[1]; PDX 60 mg/kg, 8 of 9",89%
same,Tumor Regression (%),"[1]; PDX 60 mg/kg, average tumor regression",99%
same,Complete Regression (no/total),"[2]; MTX 40 mg/kg, PDX 60 mg/kg",5/9
same,Tumor Regression (%),[2]; PDX 60 mg/kg,56%
same,decrease of tumor volumes from initial volumes,[2]; PDX 60 mg/kg,at least 50%
same,mice with tumor regressions,"[2]; PDX 60 mg/kg, 5 of 9 mice",57%
same,Complete Regression (no/total),"[3]; MTX 40 mg/kg, PDX 60 mg/kg",3/10
same,Tumor Regression (%),[3]; PDX 60 mg/kg,54%
same,decrease of tumor volumes from initial volumes,[3]; PDX 60 mg/kg,at least 50%
same,mice with tumor regressions / complete remissions,"[3]; PDX 60 mg/kg, 3 of 10 mice",30%
same,"tumor regrowth, % of initial tumor volumes","[4]; PDX or Gem at 60 mg/kg, by day 44",739%
same,apoptotic cells in tumor tissue (TUNEL),SKI-DLBCL-1 xenografts,a high level of apoptotic cells
same,maximum tolerated dose (MTD),"[5]; intraperitoneal, twice weekly, four total doses",60 mg/kg
same,weight loss at the MTD,[5],less than 10%
"Nc1ccn([C@@H]2O[C@H](CO)[C@@H](O)[C@@H]2O)c(=O)n1 [Ara-C, cytarabine]",tumor response (in words),[4],modest growth delay compared to the control
same,tumor response (in words),SKI-DLBCL-1 xenograft,sacrificed early due to excessive tumor growth
"Nc1ccn([C@@H]2O[C@H](CO)[C@@H](O)C2(F)F)c(=O)n1 [Gem, 1-(2′,2′-difluoro-β-D-arabinofuranosyl) cytosine]",fraction of cells in S-phase,SKI-DLBCL cells,fewest
"CN(Cc1cnc2nc(N)nc(N)c2n1)c1ccc(C(=O)N[C@@H](CCC(=O)O)C(=O)O)cc1 [MTX, methotrexate]",IC50,[6],35 ± 5 nM
same,IC50,[7],32 ± 2.2 nM
same,IC50,[8],210 ± 40 nM
same,IC50,Raji (Burkitt's),16 ± 0.8 nM
same,IC50,[9],48 ± 2.5 nM
same,tumor response (in words),[1]; MTX 40 mg/kg,"modest growth delay as compared to controls, there was no tumor regression"
same,tumor response (in words),[2]; MTX 40 mg/kg,small reductions in growth an no regressions
same,tumor response (in words),[3]; MTX 40 mg/kg,small reductions in growth an no regressions
same,tumor response (in words),[4],modest growth delay compared to the control
same,tumor response (in words),SKI-DLBCL-1 xenograft,sacrificed early due to excessive tumor growth
same,apoptotic cells in tumor tissue (TUNEL),SKI-DLBCL-1 xenografts,little or no evidence of apoptotic cells
same,weight loss at the MTD,[5],less than 10%
